# Assay results taken from patent US20250163484A1, “Methods for Incorporating Azido Groups in Bacterial Capsular Polysaccharides” (PFIZER INC., priority 2022, published 2025).
# Where “and” joins values, the source holds several entries; their conditions need not be identical. Equal values may be shown once. Read-outs that look alike come from different tables or passages of the source.
# Legend:
# [1] = system: S. pneumoniae T14; assay type: cell-based, Streptococcus pneumoniae serotype 14; conditions: for Polysacch. Titer: production medium + Galactose (30 g/L) + 2AzGlc (0.25 mM)
# Protocol: FIGS. 1A-1D. Screen for azido sugar incorporation into S. pneumoniae T14 capsule polysaccharide. […] Bacteria were grown until the ΔOD600≥0 for >30 minutes, then lysed with 0.1% NLS for 30 minutes. Growth was measured offline using a spectrophotometer blanked with PBS at 600 nm. (FIG. 1A) azido incorporation into polysaccharide was then quantified via fluorescent labeling (FL) with normalization to refractive index (RI). MaxOD and End Of Fermentation time (EOF) are provided in (FIG. 1B) and (FIG. 1C), respectively. Polysaccharide was extracted using EtOH and CaCl2 and analyzed via SEC-RI for (FIG. 1D) polysaccharide titer. n=1-4, error bars=+/−StDev.
# FIGS. 2A-2D Impact of 2AzGlcAc4 concentration on S. pneumoniae T14 growth and poly production in production medium supplemented with Galactose (30 g/L). […] (FIG. 2A) Growth was measured offline using a spectrophotometer blanked with PBS at 600 nm. At the end of fermentation, cultures were lysed with 0.1% NLS for 30 min. and polysaccharide was extracted via EtOH/CaCl2) precipitation. Polysaccharide titer (FIG. 2B) and size (FIG. 2C) were measured via SEC-RI and SEC-MALS, respectively. (FIG. 2D) azido incorporation was then quantified via fluorescent labeling (FL) and normalized to the refractive index (RI). n=3, error bars=+/−StDev.
# FIGS. 3A-3E Impact of 2AzGlc concentration on S. pneumoniae T14 growth and polysaccharide production in production medium supplemented with Galactose (30 g/L). […] (FIG. 3A) Growth was measured offline using a spectrophotometer blanked with PBS at 600 nm. Cultures were lysed with 0.1% NLS for 30 min. and polysaccharide was extracted via EtOH/CaCl2) precipitation. Polysaccharide (FIG. 3B/FIG. 3C) titer and (FIG. 3D) size were measured via SEC-RI and SEC-MALS, respectively. (FIG. 3E) azido incorporation was then quantified via fluorescent labeling (FL) and normalized to the refractive index (RI). n=3, error bars=+/−StDev.
# (§1) We tested the impact of 2AzGlc concentration on S. pneumoniae T14 growth, polysaccharide production, and azido incorporation by growing the bacteria in production media (supplemented with Glucose (dextrose, 30 g/L)) with various concentrations of 2AzGlc (0, 1, 5, 10, 20, 40, and 60 mM).
# [2] = system: S. pneumoniae T14; experiment: Growth of S. pneumoniae T14 in fermentation with azido sugar (OD600); assay type: cell-based, Streptococcus pneumoniae serotype 14; conditions: production media + 2AzGlc (10 mM)
# Protocol: FIGS. 1A-1D. Screen for azido sugar incorporation into S. pneumoniae T14 capsule polysaccharide. Vessels (100 mL working volume) were inoculated with a 10-fold dilution of bacteria grown in seed expansion media supplemented with Galactose (30 g/L) (OD600=1.0-1.2) and incubated at 36° C. and 173 rpm with an air overlay of 1.5 SLPH. Media (production medium supplemented with Glucose (30 g/L) (black bars) or production medium supplemented with Galactose (30 g/L) (grey bars)) pH was controlled at 7.0. Bacteria were grown until the ΔOD600≥0 for >30 minutes, then lysed with 0.1% NLS for 30 minutes. Growth was measured offline using a spectrophotometer blanked with PBS at 600 nm. (FIG. 1A) azido incorporation into polysaccharide was then quantified via fluorescent labeling (FL) with normalization to refractive index (RI). MaxOD and End Of Fermentation time (EOF) are provided in (FIG. 1B) and (FIG. 1C), respectively. Polysaccharide was extracted using EtOH and CaCl2 and analyzed via SEC-RI for (FIG. 1D) polysaccharide titer. n=1-4, error bars=+/−StDev.
# To identify azido sugars that could incorporate into S. pneumoniae T14 capsule, we grew S. pneumoniae T14 (serotype 14) in the production medium supplemented with various azido sugars (Table 3) supplied at 1 mM. We performed our screen using both production medium supplemented with Glucose (dextrose, 30 g/L) and production medium supplemented with Galactose (30 g/L).
# as §1
# To improve the incorporation of 2AzGlc into S. pneumoniae T14 capsule in production media (supplemented with Glucose (dextrose, 30 g/L)), we performed a 16-vessel DOE designed to test the impact of pH (6.33, 6.66, 7.00, and 7.33) and agitation (100, 200, and 300 rpm) on four response variables (MaxOD, Poly Titer, Poly Size, and FL/RI).
# [3] = 2AzGlc titration 0-60 mM, production media + Glucose (dextrose, 30 g/L)
smiles,measurement,setting,value
"[N-]=[N+]=N[C@@H](C=O)[C@@H](O)[C@H](O)[C@H](O)CO [2AzGlc, 2-Azido-2-deoxy-D-glucose]",max size reduction,[1]; [3],78%
same,max titer loss,[1]; [3],56%
same,concentration at which negative effect on poly production started,"[1]; 2AzGlc titration, production media + Glucose (dextrose, 30 g/L)",1 mM
same,polysaccharide titers with increasing 2AzGlc concentrations,"[1]; 2AzGlc titration, production medium + Galactose (30 g/L)",negatively impacted
same,Poly Titer,"[1]; azido feed DOE: Gal 30 g/L, initial 2AzGlc 0 mM, 2AzGlc feed stock 4 mM, pH 7.33, 300 rpm",0.2358 mg/mL and 0.22 mg/mL
same,Poly Titer,"[1]; azido feed DOE: Gal 30 g/L, initial 2AzGlc 0 mM, 2AzGlc feed stock 6.5 mM, pH 7.33, 300 rpm",0.1846 mg/mL and 0.189 mg/mL
same,Poly Titer,"[1]; azido feed DOE: Gal 30 g/L, initial 2AzGlc 0.1 mM, 2AzGlc feed stock 4 mM, pH 7.33, 300 rpm",0.1856 mg/mL and 0.1876 mg/mL
same,Poly Titer,"[1]; azido feed DOE: Gal 30 g/L, initial 2AzGlc 0.1 mM, 2AzGlc feed stock 6.5 mM, pH 7.33, 300 rpm",0.1266 mg/mL and 0.137 mg/mL
same,Poly Titer,"[1]; azido feed DOE: Gal 40 g/L, initial 2AzGlc 0 mM, 2AzGlc feed stock 4 mM, pH 7.33, 300 rpm",0.2204 mg/mL and 0.1796 mg/mL
same,Poly Titer,"[1]; azido feed DOE: Gal 40 g/L, initial 2AzGlc 0 mM, 2AzGlc feed stock 6.5 mM, pH 7.33, 300 rpm",0.1826 mg/mL and 0.1536 mg/mL
same,Poly Titer,"[1]; azido feed DOE: Gal 40 g/L, initial 2AzGlc 0.1 mM, 2AzGlc feed stock 4 mM, pH 7.33, 300 rpm",0.1882 mg/mL and 0.1748 mg/mL
same,Poly Titer,"[1]; azido feed DOE: Gal 40 g/L, initial 2AzGlc 0.1 mM, 2AzGlc feed stock 6.5 mM, pH 7.33, 300 rpm",0.1251 mg/mL and 0.1011 mg/mL
same,polysaccharide production,"[1]; azido sugar 20 mM without DMSO, production medium + Galactose (30 g/L)",strongly inhibited
same,polysaccharide titer (average),"[1]; initial galactose 40 g/L, initial 2AzGlc 0.1 mM, 4.0 mM 2AzGlc feed stock",0.1815 mg/mL
same,Poly Titer,"[1]; production media + 2AzGlc (10 mM), pH 6.33, agitation 100 rpm",0.39 mg/mL
same,Poly Titer,"[1]; production media + 2AzGlc (10 mM), pH 6.33, agitation 300 rpm",0.44 mg/mL and 0.42 mg/mL
same,Poly Titer,"[1]; production media + 2AzGlc (10 mM), pH 6.66, agitation 200 rpm",0.52 mg/mL and 0.47 mg/mL
same,Poly Titer,"[1]; production media + 2AzGlc (10 mM), pH 7, agitation 100 rpm",0.40 mg/mL and 0.41 mg/mL
same,Poly Titer,"[1]; production media + 2AzGlc (10 mM), pH 7, agitation 300 rpm",0.43 mg/mL and 0.48 mg/mL
same,Poly Titer,"[1]; production media + 2AzGlc (10 mM), pH 7.33, agitation 100 rpm",0.36 mg/mL and 0.37 mg/mL
same,Poly Titer,"[1]; production media + 2AzGlc (10 mM), pH 7.33, agitation 200 rpm",0.41 mg/mL and 0.44 mg/mL
same,Poly Titer,"[1]; production media + 2AzGlc (10 mM), pH 7.33, agitation 300 rpm",0.41 mg/mL
same,Titer,"[1]; production media + Glucose (dextrose, 30 g/L), media pH 7, 2AzGlc 1 mM",0.63 mg/mL
same,Titer,"[1]; production media + Glucose (dextrose, 30 g/L), media pH 7, 2AzGlc 5 mM",0.53 mg/mL
same,Titer,"[1]; production media + Glucose (dextrose, 30 g/L), media pH 7, 2AzGlc 10 mM",0.43 mg/mL
same,Titer,"[1]; production media + Glucose (dextrose, 30 g/L), media pH 7, 2AzGlc 20 mM",0.32 mg/mL
same,Titer,"[1]; production media + Glucose (dextrose, 30 g/L), media pH 7.33, 2AzGlc 20 mM",0.3 mg/mL
same,Titer,"[1]; production media + Glucose (dextrose, 30 g/L), media pH 7.33, 2AzGlc 40 mM",0.28 mg/mL
same,Titer,"[1]; production media + Glucose (dextrose, 30 g/L), media pH 7.33, 2AzGlc 60 mM",0.28 mg/mL
same,Polysacch. Titer,"[1]; pH 6.33, agitation 100 rpm",0.195 mg/mL and 0.193 mg/mL
same,Polysacch. Titer,"[1]; pH 6.33, agitation 200 rpm",0.171 mg/mL
same,Polysacch. Titer,"[1]; pH 6.33, agitation 300 rpm",0.087 mg/mL and 0.149 mg/mL
same,Polysacch. Titer,"[1]; pH 6.66, agitation 100 rpm",0.247 mg/mL
same,Polysacch. Titer,"[1]; pH 6.66, agitation 300 rpm",0.227 mg/mL
same,Polysacch. Titer,"[1]; pH 7, agitation 200 rpm",0.269 mg/mL
same,Polysacch. Titer,"[1]; pH 7.33, agitation 100 rpm",0.235 mg/mL and 0.216 mg/mL
same,Polysacch. Titer,"[1]; pH 7.33, agitation 300 rpm",0.228 mg/mL and 0.211 mg/mL
same,polysaccharide titer,"[1]; screen, azido sugar 1 mM, only in production medium + Galactose",reduced
same,MaxOD600 nm,"[2]; pH 6.33, agitation 100 rpm",12.1 and 13.6
same,MaxOD600 nm,"[2]; pH 6.33, agitation 300 rpm",10.8 and 10.7
same,MaxOD600 nm,"[2]; pH 7, agitation 100 rpm",8.8 and 7.8
same,MaxOD600 nm,"[2]; pH 7.33, agitation 100 rpm",8.9 and 9.6
same,MaxOD600 nm,"[2]; pH 7.33, agitation 200 rpm",8.5 and 8.3
